Reference: ChEMBL document CHEMBL3045552, “In vivo screening of diarylimidazoles as anticonvulsant agents” (Med Chem Res, 2012)
The source made the active and inactive calls. The calls are words filed in the database; no cut-off is given here.

Assays:
Mus musculus [1] = test: Anticonvulsant activity in Mus musculus CF1 albino (mouse) assessed as protection against maximal electroshock-induced seizures at 30 mg/kg, ip measured at 0.5 hr; assay type: functional, organism-based; parameters: dose 30 mg/kg
Mus musculus [2] = test: Anticonvulsant activity in Mus musculus CF1 albino (mouse) assessed as protection against maximal electroshock-induced seizures at 300 mg/kg, ip measured at 4 hr; assay type: functional, organism-based; parameters: dose 300 mg/kg
Mus musculus [3] = test: Anticonvulsant activity in Mus musculus CF1 albino (mouse) assessed as protection against maximal electroshock-induced seizures at 100 mg/kg, ip measured at 4 hr; assay type: functional, organism-based; parameters: dose 100 mg/kg
Mus musculus [4] = test: Anticonvulsant activity in Mus musculus CF1 albino (mouse) assessed as protection against maximal electroshock-induced seizures at 30 mg/kg, ip measured at 4 hr; assay type: functional, organism-based; parameters: dose 30 mg/kg
Mus musculus [5] = test: Anticonvulsant activity in Mus musculus CF1 albino (mouse) assessed as protection against maximal electroshock-induced seizures at 300 mg/kg, ip measured at 0.5 hr; assay type: functional, organism-based; parameters: dose 300 mg/kg
Mus musculus [6] = test: Anticonvulsant activity in Mus musculus CF1 albino (mouse) assessed as protection against maximal electroshock-induced seizures at 100 mg/kg, ip measured at 0.5 hr; assay type: functional, organism-based; parameters: dose 100 mg/kg
Mus musculus [7] = test: Anticonvulsant activity in Mus musculus CF1 albino (mouse) assessed as protection against electrically-induced seizure at 100 mg/kg, ip measured at 1 hr by 6Hz psychomotor seizure test; assay type: functional, organism-based; parameters: dose 100 mg/kg
Mus musculus [8] = test: Neurotoxicity in Mus musculus CF1 albino (mouse) assessed as minimal motor impairment at 300 mg/kg, ip measured at 4 hr by rotorod test; assay type: toxicity, organism-based; parameters: dose 300 mg/kg, route intraperitoneal; details: in vivo
Mus musculus [9] = test: Neurotoxicity in Mus musculus CF1 albino (mouse) assessed as minimal motor impairment at 100 mg/kg, ip measured at 4 hr by rotorod test; assay type: toxicity, organism-based; parameters: dose 100 mg/kg, route intraperitoneal; details: in vivo
Mus musculus [10] = test: Neurotoxicity in Mus musculus CF1 albino (mouse) assessed as minimal motor impairment at 30 mg/kg, ip measured at 4 hr by rotorod test; assay type: toxicity, organism-based; parameters: dose 30 mg/kg, route intraperitoneal; details: in vivo
Mus musculus [11] = test: Neurotoxicity in Mus musculus CF1 albino (mouse) assessed as minimal motor impairment at 300 mg/kg, ip measured at 0.5 hr by rotorod test; assay type: toxicity, organism-based; parameters: dose 300 mg/kg, route intraperitoneal; details: in vivo
Mus musculus [12] = test: Neurotoxicity in Mus musculus CF1 albino (mouse) assessed as minimal motor impairment at 100 mg/kg, ip measured at 0.5 hr by rotorod test; assay type: toxicity, organism-based; parameters: dose 100 mg/kg, route intraperitoneal; details: in vivo
Mus musculus [13] = test: Neurotoxicity in Mus musculus CF1 albino (mouse) assessed as minimal motor impairment at 30 mg/kg, ip measured at 0.5 hr by rotorod test; assay type: toxicity, organism-based; parameters: dose 30 mg/kg, route intraperitoneal; details: in vivo
Mus musculus [14] = test: Anticonvulsant activity in Mus musculus CF1 albino (mouse) assessed as protection against subcutaneous metrazol-induced seizures at 300 mg/kg, ip measured at 4 hr; assay type: functional, organism-based; parameters: dose 300 mg/kg
Mus musculus [15] = test: Anticonvulsant activity in Mus musculus CF1 albino (mouse) assessed as protection against subcutaneous metrazol-induced seizures at 100 mg/kg, ip measured at 4 hr; assay type: functional, organism-based; parameters: dose 100 mg/kg
Mus musculus [16] = test: Anticonvulsant activity in Mus musculus CF1 albino (mouse) assessed as protection against subcutaneous metrazol-induced seizures at 30 mg/kg, ip measured at 4 hr; assay type: functional, organism-based; parameters: dose 30 mg/kg
Mus musculus [17] = test: Anticonvulsant activity in Mus musculus CF1 albino (mouse) assessed as protection against subcutaneous metrazol-induced seizures at 300 mg/kg, ip measured at 0.5 hr; assay type: functional, organism-based; parameters: dose 300 mg/kg
Mus musculus [18] = test: Anticonvulsant activity in Mus musculus CF1 albino (mouse) assessed as protection against subcutaneous metrazol-induced seizures at 100 mg/kg, ip measured at 0.5 hr; assay type: functional, organism-based; parameters: dose 100 mg/kg
Mus musculus [19] = test: Anticonvulsant activity in Mus musculus CF1 albino (mouse) assessed as protection against subcutaneous metrazol-induced seizures at 30 mg/kg, ip measured at 0.5 hr; assay type: functional, organism-based; parameters: dose 30 mg/kg
[20] = Neurotoxicity in ip dosed Mus musculus CF1 albino (mouse) assessed as minimal motor impairment measured at 0.25 hr by rotorod test; assay type: toxicity, organism-based; details: in vivo
[21] = Protective index, ratio of TD50 for neurotoxicity in ip dosed Mus musculus CF1 albino (mouse) to ED50 for protection against subcutaneous metrazol-induced seizures in ip dosed Mus musculus CF1 albino (mouse); assay type: toxicity, organism-based; details: in vivo, read-out: Ratio TD50/ED50
Mus musculus [22] = test: Anticonvulsant activity in ip dosed Mus musculus CF1 albino (mouse) assessed as protection against subcutaneous metrazol-induced seizures measured at 0.25 hr; assay type: functional
Mus musculus [23] = test: Anticonvulsant activity in ip dosed Mus musculus CF1 albino (mouse) assessed as protection against maximal electroshock-induced seizures measured at 0.25 hr; assay type: functional
[24] = Protective index, ratio of TD50 for neurotoxicity in ip dosed Mus musculus CF1 albino (mouse) to ED50 for protection against maximal electroshock-induced seizures in ip dosed Mus musculus CF1 albino (mouse); assay type: toxicity, organism-based; details: in vivo, read-out: Ratio TD50/ED50
Mus musculus [25] = test: Anticonvulsant activity in Mus musculus CF1 albino (mouse) assessed as protection against electrically-induced seizure at 100 mg/kg, ip measured at 4 hr by 6Hz psychomotor seizure test; assay type: functional, organism-based; parameters: dose 100 mg/kg
Mus musculus [26] = test: Anticonvulsant activity in Mus musculus CF1 albino (mouse) assessed as protection against electrically-induced seizure at 100 mg/kg, ip measured at 2 hr by 6Hz psychomotor seizure test; assay type: functional, organism-based; parameters: dose 100 mg/kg
Mus musculus [27] = test: Anticonvulsant activity in ip dosed Mus musculus CF1 albino (mouse) assessed as protection against electrically-induced seizure measured at 0.25 hr by 6Hz psychomotor seizure test; assay type: functional
Mus musculus [28] = test: Anticonvulsant activity in Mus musculus CF1 albino (mouse) assessed as protection against electrically-induced seizure at 100 mg/kg, ip measured at 0.5 hr by 6Hz psychomotor seizure test; assay type: functional, organism-based; parameters: dose 100 mg/kg
Mus musculus [29] = test: Anticonvulsant activity in Mus musculus CF1 albino (mouse) assessed as protection against electrically-induced seizure at 100 mg/kg, ip measured at 0.25 hr by 6Hz psychomotor seizure test; assay type: functional, organism-based; parameters: dose 100 mg/kg
[30] = Protective index, ratio of TD50 for neurotoxicity in ip dosed Mus musculus CF1 albino (mouse) to ED50 for protection against electrically-induced seizure by 6Hz psychomotor seizure test in ip dosed Mus musculus CF1 albino (mouse); assay type: toxicity, organism-based; details: in vivo, read-out: Ratio TD50/ED50

Row | Structure (SMILES) | Activity (Mus musculus [1]) | Activity (Mus musculus [2]) | Activity (Mus musculus [3]) | Activity (Mus musculus [4]) | Activity (Mus musculus [5]) | Activity (Mus musculus [6]) | Activity (Mus musculus [7]) | Activity (Mus musculus [8]) | Activity (Mus musculus [9]) | Activity (Mus musculus [10]) | Activity (Mus musculus [11]) | Activity (Mus musculus [12]) | Activity (Mus musculus [13]) | Activity (Mus musculus [14]) | Activity (Mus musculus [15]) | Activity (Mus musculus [16]) | Activity (Mus musculus [17]) | Activity (Mus musculus [18]) | Activity (Mus musculus [19]) | Activity (Mus musculus [25]) | other results
1 | CC(C)c1ccc(-c2nc(-c3ccccc3)c[nH]2)cc1 | inactive | Active | inactive | inactive | Active | inactive | inactive | Non-toxic | Non-toxic | Non-toxic | Non-toxic | Non-toxic | Non-toxic | inactive | inactive | inactive | inactive | inactive | inactive | – | –
2 | COc1ccc(-c2nc(-c3cccc(Cl)c3)c[nH]2)cc1 | inactive | Active | – | inactive | Active | inactive | inactive | Non-toxic | Non-toxic | Non-toxic | Non-toxic | Non-toxic | Non-toxic | inactive | inactive | inactive | inactive | inactive | inactive | inactive | TD50 at 0.25 h [20]: 390 mg/kg; selectivity ratio [21]: 3.8; ED50 (Mus musculus [22]): 103 mg/kg; ED50 (Mus musculus [23]): 82.1 mg/kg; selectivity ratio [24]: 4.7
3 | COc1ccc(-c2nc(-c3ccccc3)c[nH]2)cc1 | inactive | Active | – | inactive | Active | Active | – | Toxic | Non-toxic | Non-toxic | Toxic | Non-toxic | Non-toxic | inactive | inactive | inactive | Active | inactive | inactive | inactive | selectivity ratio [21]: 1.4; ED50 (Mus musculus [22]): 142 mg/kg; ED50 (Mus musculus [23]): 46.8 mg/kg; selectivity ratio [24]: 4.3; Activity (Mus musculus [26]): inactive
4 | c1ccc(-c2c[nH]c(-c3ccccc3)n2)cc1 | Active | Active | inactive | inactive | Active | Active | Active | – | Non-toxic | Non-toxic | Toxic | – | Non-toxic | inactive | inactive | inactive | inactive | inactive | inactive | inactive | ED50 (Mus musculus [27]): 47.2 mg/kg; ED50 (Mus musculus [22]): 161 mg/kg; ED50 (Mus musculus [23]): 61.7 mg/kg; Activity (Mus musculus [26]): inactive; Activity (Mus musculus [28]): Active; Activity (Mus musculus [29]): Active
5 | Cc1ccc(-c2nc(-c3ccccc3)c[nH]2)cc1 | inactive | Active | inactive | inactive | Active | – | – | Non-toxic | Non-toxic | Non-toxic | Non-toxic | Non-toxic | Non-toxic | inactive | inactive | inactive | inactive | inactive | inactive | inactive | selectivity ratio [30]: 3; ED50 (Mus musculus [27]): 62.4 mg/kg; TD50 at 0.25 h [20]: 188 mg/kg
6 | CC(C)Oc1ccc(-c2nc(-c3ccccc3)c[nH]2)cc1 | Active | Active | inactive | inactive | Active | Active | – | – | Non-toxic | Non-toxic | Toxic | Non-toxic | Non-toxic | inactive | inactive | inactive | inactive | inactive | inactive | inactive | Activity (Mus musculus [26]): inactive
7 | FC(F)(F)Oc1ccc(-c2nc(-c3ccccc3)c[nH]2)cc1 | inactive | Active | – | inactive | Active | inactive | Active | Non-toxic | Non-toxic | Non-toxic | Toxic | Non-toxic | Non-toxic | inactive | inactive | inactive | Active | inactive | inactive | – | selectivity ratio [30]: 4.8; ED50 (Mus musculus [27]): 28.2 mg/kg; TD50 at 0.25 h [20]: 136 mg/kg; Activity (Mus musculus [28]): Active; Activity (Mus musculus [29]): Active
8 | CCOc1ccc(-c2nc(-c3ccccc3)c[nH]2)cc1 | inactive | inactive | inactive | inactive | Active | – | inactive | Non-toxic | Non-toxic | Non-toxic | Non-toxic | Non-toxic | Non-toxic | – | inactive | inactive | inactive | inactive | inactive | inactive | Activity (Mus musculus [26]): inactive
9 | O=C1NC(=O)C(c2ccccc2)(c2ccccc2)N1 [PHENYTOIN] | – | – | – | – | – | – | – | – | – | – | – | – | – | – | – | – | – | – | – | – | ED50 (Mus musculus [27]): 27.5 mg/kg; TD50 at 0.25 h [20]: 35.6 mg/kg
10 | COc1ccc(-c2nc(-c3ccc(Cl)cc3)c[nH]2)cc1 | inactive | Active | Active | inactive | Active | – | – | Non-toxic | Non-toxic | Non-toxic | Non-toxic | Non-toxic | Non-toxic | inactive | inactive | inactive | inactive | inactive | inactive | inactive | TD50 at 0.25 h [20]: 238 mg/kg; selectivity ratio [21]: 1.5; ED50 (Mus musculus [22]): 158 mg/kg; ED50 (Mus musculus [23]): 68.8 mg/kg; selectivity ratio [24]: 3.5; Activity (Mus musculus [26]): inactive
